The text below walks through data of US20230365592A1 (Agios Pharmaceuticals, Inc., priority 2022, published 2023).

Bounds are passed on as bounds.

This assay has as its target T1, human PAH with the R408W mutation (Homo sapiens, UniProt P00439, R408W).
T1 construct: expressed in transfected cells
T1 sequence (P00439 1-452 R408W): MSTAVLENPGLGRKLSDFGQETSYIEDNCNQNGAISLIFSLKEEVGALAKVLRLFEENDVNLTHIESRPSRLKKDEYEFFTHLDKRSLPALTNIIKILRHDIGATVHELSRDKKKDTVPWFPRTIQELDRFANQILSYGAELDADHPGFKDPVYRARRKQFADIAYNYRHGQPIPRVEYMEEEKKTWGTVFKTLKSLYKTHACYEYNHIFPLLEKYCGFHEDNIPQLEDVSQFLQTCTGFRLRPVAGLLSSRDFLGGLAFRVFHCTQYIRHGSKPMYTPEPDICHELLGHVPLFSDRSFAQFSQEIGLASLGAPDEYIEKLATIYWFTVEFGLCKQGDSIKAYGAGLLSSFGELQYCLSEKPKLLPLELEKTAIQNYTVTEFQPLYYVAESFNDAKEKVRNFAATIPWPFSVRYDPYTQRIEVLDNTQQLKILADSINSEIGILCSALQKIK
In words: Cell Based Phenylalanine Flux Assay.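 Further: after compound treatment, cells received sepiapterin plus isotope-labelled Phenylalanine for 4 hours, then labelled Tyrosine in the medium was quantified, 10-point 2-fold dilution series run in duplicate.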 The settings on record: A375 cells expressing human R408W PAH; 24 hrs compound incubation; 13C-Tyrosine by LC-MS; average where tested multiple times; read-out: AC50.

A word on the AC50: it is the midpoint of the concentration-response curve, whichever way the signal moves. In the case of `O=C(c1nnc(-c2ncccc2F)o1)N1CCc2[nH]cnc2[C@H]1c1cc2c(C(F)F)cccn2n1` [Example 1426, (S)-(4-(4-(difluoromethyl)pyrazolo[1,5-a]pyridin-2-yl)-6,7-dihydro-1H-imidazo[4,5-c]pyridin-5(4H)-yl)(5-(3-fluoropyridin-2-yl)-1,3,4-oxadiazol-2-yl)methanone], the concentration at half-maximal activity (AC50) is less than 500 nM.
The same measure for `O=C(c1nnc(-c2ncccc2F)o1)N1CCc2[nH]cnc2[C@@H]1c1cc2c(C(F)F)cccn2n1` [Example 1427, (R)-(4-(4-(difluoromethyl)pyrazolo[1,5-a]pyridin-2-yl)-6,7-dihydro-1H-imidazo[4,5-c]pyridin-5(4H)-yl)(5-(3-fluoropyridin-2-yl)-1,3,4-oxadiazol-2-yl)methanone]: greater than 5000 nM; for `Cc1cccc(-c2nnc(C(=O)N3CCc4[nH]cnc4[C@@H]3c3cc4c(Cl)cccn4n3)o2)n1` [Example 1430, (R)-(4-(4-chloropyrazolo[1,5-a]pyridin-2-yl)-6,7-dihydro-1H-imidazo[4,5-c]pyridin-5(4H)-yl)(5-(6-methylpyridin-2-yl)-1,3,4-oxadiazol-2-yl)methanone]: greater than 5000 nM; for `Cc1cccc(-c2nnc(C(=O)N3CCc4[nH]cnc4[C@@H]3c3cc4c(C(F)(F)F)cccn4n3)o2)n1` [Example 1432, (R)-(5-(6-methylpyridin-2-yl)-1,3,4-oxadiazol-2-yl)(4-(4-(trifluoromethyl)pyrazolo[1,5-a]pyridin-2-yl)-6,7-dihydro-1H-imidazo[4,5-c]pyridin-5(4H)-yl)methanone]: 1000 to 5000 nM.
In the case of `Cn1ccc(-c2nnc(C(=O)N3CCc4[nH]cnc4[C@H]3c3cc4cccc(C(F)F)n4n3)o2)n1` [Example 1438, (S)-(4-(7-(difluoromethyl)pyrazolo[1,5-a]pyridin-2-yl)-6,7-dihydro-1H-imidazo[4,5-c]pyridin-5(4H)-yl)(5-(1-methyl-1H-pyrazol-3-yl)-1,3,4-oxadiazol-2-yl)methanone], the AC50 is 500 to 1000 nM.
Consider `Cn1ccc(-c2nnc(C(=O)N3CCc4[nH]cnc4[C@@H]3c3cc4cccc(C(F)F)n4n3)o2)n1` [Example 1439, (R)-(4-(7-(difluoromethyl)pyrazolo[1,5-a]pyridin-2-yl)-6,7-dihydro-1H-imidazo[4,5-c]pyridin-5(4H)-yl)(5-(1-methyl-1H-pyrazol-3-yl)-1,3,4-oxadiazol-2-yl)methanone], for which the AC50 is greater than 5000 nM.
The same measure for `O=C(c1nnc(-c2cnn(C(F)F)c2)o1)N1CCc2[nH]cnc2[C@H]1c1cc2cccc(C(F)F)n2n1` [Example 1440, (S)-(5-(1-(difluoromethyl)-1H-pyrazol-4-yl)-1,3,4-oxadiazol-2-yl)(4-(7-(difluoromethyl)pyrazolo[1,5-a]pyridin-2-yl)-6,7-dihydro-1H-imidazo[4,5-c]pyridin-5(4H)-yl)methanone]: 500 to 1000 nM.
The same measure for `O=C(c1nnc(-c2cnn(C(F)F)c2)o1)N1CCc2[nH]cnc2[C@@H]1c1cc2cccc(C(F)F)n2n1` [Example 1441, (R)-(5-(1-(difluoromethyl)-1H-pyrazol-4-yl)-1,3,4-oxadiazol-2-yl)(4-(7-(difluoromethyl)pyrazolo[1,5-a]pyridin-2-yl)-6,7-dihydro-1H-imidazo[4,5-c]pyridin-5(4H)-yl)methanone]: greater than 5000 nM; for `O=C(c1nnc(-c2ccn(C(F)F)n2)o1)N1CCc2[nH]cnc2[C@H]1c1cc2cccc(C(F)F)n2n1` [Example 1442, (S)-(5-(1-(difluoromethyl)-1H-pyrazol-3-yl)-1,3,4-oxadiazol-2-yl)(4-(7-(difluoromethyl)pyrazolo[1,5-a]pyridin-2-yl)-6,7-dihydro-1H-imidazo[4,5-c]pyridin-5(4H)-yl)methanone]: less than 500 nM.
`O=C(c1nnc(-c2cnn(C(F)(F)F)c2)o1)N1CCc2[nH]cnc2[C@H]1c1cc2cccc(Cl)n2n1` [Example 1444, (S)-(4-(7-chloropyrazolo[1,5-a]pyridin-2-yl)-6,7-dihydro-1H-imidazo[4,5-c]pyridin-5(4H)-yl)(5-(1-(trifluoromethyl)–1H-pyrazol-4-yl)-1,3,4-oxadiazol-2-yl)methanone]: the AC50 is less than 500 nM.
